Data: article PMC3527569, “Anti-Inflammatory and Vasoprotective Activity of a Retroviral-Derived Peptide, Homologous to Human Endogenous Retroviruses: Endothelial Cell Effects” (PLoS ONE, 2012)
Where “and” joins values, the source holds several entries; their conditions need not be identical. Equal values may be shown once. Entries after “also recorded” stand apart in the source; their conditions may differ. Where a SMILES comes first, the peptide text is derived from it. Bridges are numbered along the chain shown (N, C = ends). Roman numbers before positions name the chains, in order.

Columns and labels:
[1] = mice; data not shown
[2] = system: iNOS (inducible nitric oxide synthase) mRNA; experiment: RT-PCR of iNOS mRNA in HUVEC; type: cell-based, human; details: 50 µM peptide, 3 h, 37°C, quiescent HUVEC, RT-PCR
Method: (§1) Cells were cultured with various concentrations of test materials, either with or without stimulus, for varying times. The cells were collected, washed and total RNA isolated using the RNeasy Mini Kit (Qiagen; Valencia, CA). Following isolation the RNA was treated with 7 units of DNase I according to the RNase-Free DNase Set (Qiagen; Valencia, CA) protocol. Using these procedures we usually obtained ∼50 µg of total RNA/10^7 cells. cDNA was prepared from the isolated mRNAs and RT-PCR performed on the target cytokines/chemokines/growth factors using appropriate primer pairs and a control primer pair for β-actin (all from R & D Systems; Minneapolis, MN). RT-PCR was generally performed for 30 cycles for β-actin and 35–45 cycles for iNOS and VEGF.

[3] = system: dengue virus; experiment: Vascular leak in liver of mice injected with dengue virus; parameters: species or system mouse; details: 1 µg intraperitoneal; dengue virus i.v.; preliminary in vivo studies
[4] = system: HUVEC; experiment: TNF-α-induced necrosis in HUVEC (Cell Death Detection ELISA, supernatant); type: cell-based, human; details: HUVEC pretreated 3 h with 6.25-50 µM peptide, TNF-α 100 ng/ml, overnight
Method: Apoptosis was measured in HUVEC using the Cell Death Detection ELISA^PLUS kit (Roche Diagnostics; Indianapolis, IN) according to the manufacturer's instructions. This assay is based on a quantitative sandwich-enzyme-immunoassay using mouse monoclonal antibodies directed against both DNA and histones, respectively. It allows the specific determination of mono- and oligonucleosomes in the cytoplasmic fraction of cell lysates (apoptosis) and in the supernatant of dying cells (necrosis). The apoptotic index (AI) was calculated as
where treatment refers to use of a known apoptosis- or necrosis-inducing agent (staurosporine, TNF-α).

[5] = system: Adhesion; experiment: Monocyte adhesion to endothelial cells (HUVEC); type: cell-based, human; details: calcein-labelled PBMC on HUVEC, TNF-α stimulated; peptide 10 nM-100 µM
Method: Monocyte Adhesion to Endothelial Cells: To each well of a 96-well tissue culture plate was added 100 µL of HUVEC at 2 x 10^4 cells/ml. The plates were then incubated 48 h at 37°C and 5% CO2. PBMC, prepared as above, were washed once in serum-free RPMI-1640 medium. Calcein-AM (Sigma; St. Louis, MO) was added to a final concentration of 10 µg/ml, the cells incubated 30 min at 37°C, and then washed once with serum-free RPMI-1640. The cells were then washed an additional time with Complete Medium and resuspended to a concentration of 3 x 10^6/ml in Complete Medium. For each concentration of compound to be tested, 200 µL of labeled PBMC was incubated with 200 µL of test compound (2X desired final concentration) in polypropylene tubes. Similarly, for each concentration of compound to be tested, 50 µL of medium was removed from a well of the plated HUVEC and 50 µL of medium containing the test compound (2X desired final concentration) was added. Both tubes and plates were incubated 1 h at 37°C in 5% CO2. All peptides were tested at log10 concentrations of 10 nM to 100 µM. […] The plate was then read on a fluorescent spectrophotometer with filter settings of λ = 485exc/530emi. […] The plate was blotted to remove any media and read again on the fluorescent spectrophotometer. Percent of Maximum Adhesion (% Max. Adh.) was calculated as: […]

[6] = system: endothelial nitric oxide synthase (eNOS) mRNA; experiment: RT-PCR of eNOS mRNA in HUVEC; type: cell-based, human; details: data not shown
Method: as §1

[7] = system: IL-6; experiment: Plasma IL-6 in mouse carrageenan DIC model (ELISA); type: in vivo, mouse (CD-1); details: 1 mg (245 nmol) i.p. 18 h before carrageenan, peak at 4 h
Method: (§2) Groups of 10 male CD-1 mice were injected i.p. with 0.25 ml of either vehicle (PBS) or peptide in vehicle at varying times prior to the i.p. injection of 1.0 ml of carrageenan (0.45% [w/v] in PBS; Sigma). In experiments where serum cytokine levels were determined, groups of 5 mice were euthanized at 1-, 2-, 4-, 8-, and 24-h post injection of carrageenan, blood collected by cardiac puncture into heparinized syringes, and the resultant plasma stored at −80°C until assayed by ELISA. […] At 1-, 2-, 4-, and 24-h post injection of carrageenan, five mice from each group were euthanized and heparinized blood samples collected from the heart using heparinized syringes for subsequent determinations of WBC (white blood cell) counts, RBC (red blood cell) counts, or PLT (platelet) counts.
(§3) Cytokine measurements of serum samples from MN10021-treated mice were performed by sandwich ELISA assays (R & D systems) according to the manufacturer’s instructions for use of its kits with sera samples.

[8] = system: dermal vascular leak; experiment: Reverse passive Arthus reaction, dermal vascular leak; type: in vivo, guinea pig (Hartley)
Method: Eighteen hours later both flanks of the animals were shaved and 6.25 or 12.5 µl of rabbit anti-BSA antiserum was injected intradermally (i.d.) at two sites, one on each flank. The animals were then injected i.v. with 1 ml of PBS containing BSA (1 mg/ml) and Evans Blue dye (2 mg/ml; Sigma; St. Louis, MO). Six hours later the animals were euthanized, the skin removed, and the level of induration determined as the diameter (mm) of the extravasation for each site measured on the ventral surface of the skin.

[9] = system: TNF-α; experiment: Plasma TNF-α in mouse carrageenan DIC model (ELISA); type: in vivo, mouse (CD-1); details: 1 mg (245 nmol) i.p. 18 h before carrageenan, over 24 h, groups of 5 mice
Method: as §2, §3

[10] = system: blood leukocyte and platelet counts; experiment: Blood cell counts (WBC, PLT) in mouse carrageenan DIC model; type: in vivo, mouse (CD-1); details: 245 nmol i.p. 18 h before carrageenan
Method: as §2

[11] = system: paw inflammation; experiment: Carrageenan-induced paw inflammation in mice; type: in vivo, mouse; details: compared with peritonitis model; data not shown

## CC(C)C[C@H](NC(=O)CNC(=O)CNC(=O)[C@H](CCC(=O)O)NC(=O)[C@H](CCCCN)NC(=O)[C@H](CC(C)C)NC(=O)[C@H](Cc1ccccc1)NC(=O)[C@H](CC(C)C)NC(=O)[C@H](CC(C)C)NC(=O)[C@H](CC(=O)O)NC(=O)[C@H](CC(C)C)NC(=O)CNC(=O)[C@H](CCCNC(=N)N)NC(=O)[C@H](CCCNC(=N)N)NC(=O)[C@H](CC(N)=O)NC(=O)[C@H](CCC(N)=O)NC(=O)[C@@H](N)CC(C)C)C(=O)N[C@@H](CSSC[C@H](NC(=O)[C@H](CC(C)C)NC(=O)CNC(=O)CNC(=O)[C@H](CCC(=O)O)NC(=O)[C@H](CCCCN)NC(=O)[C@H](CC(C)C)NC(=O)[C@H](Cc1ccccc1)NC(=O)[C@H](CC(C)C)NC(=O)[C@H](CC(C)C)NC(=O)[C@H](CC(=O)O)NC(=O)[C@H](CC(C)C)NC(=O)CNC(=O)[C@H](CCCNC(=N)N)NC(=O)[C@H](CCCNC(=N)N)NC(=O)[C@H](CC(N)=O)NC(=O)[C@H](CCC(N)=O)NC(=O)[C@@H](N)CC(C)C)C(=O)O)C(=O)O [MN10021] (I: H-LQNRRGLDLLFLKEGGLC-OH / II: H-LQNRRGLDLLFLKEGGLC-OH; disulfide I:18-II:18)
[1]
  time to detection in the blood after s.c. injection: ≤ 15 min
[2]
  induction of mRNA for iNOS in HUVEC: induces mRNA for iNOS
[3]
  effect on vascular leak in the liver of dengue virus-injected mice: inhibit the vascular leak
[4]
  protection against TNF-α-induced necrosis: significant protection; also recorded: block almost completely
[5]
  IC50: > 100 µM
[6]
  effect on expression of mRNA for eNOS: Neither MN10021 nor DUK0005 affected
[7]
  block of peak plasma IL-6 response: about 50%
[8]; 250 or 500 µg s.c. 18 h before challenge, Evans Blue extravasation diameter at 6 h
  block of vascular leak, challenge 6.25 µl anti-BSA: completely blocked
[8]; only the highest dose (500 µg) s.c. 18 h before challenge, Evans Blue extravasation at 6 h
  block of vascular leak, challenge 12.5 µl anti-BSA: completely blocked
[9]
  block of carrageenan-induced increase in plasma TNF-α: ~85% and > 80%
[10]
  effect on carrageenan-induced leukocytosis (WBC): prevented much of the leukocytosis
[10]; over the 24 h period
  PLT count of treated mice, percent of normal: approximately 50%
[11]
  activity in carrageenan-induced paw inflammation: equally active

## H-LGGEKLFLLDGRNQLC-OH (disulfide (positions not given here)) [MN20050]
[5]
  IC50: > 100 µM
